Among the data in US20060084648A1, “Ethynyl derivatives as factor xa inhibitors” (Merck Patent GmbH, priority 2003, published 2006) are IC50 and melting point values, retold here.

The target of one data set is FXa (Homo sapiens, UniProt P00742). Nature of the data set: Factor Xa inhibition (FXa-IC50, pharmacological data). The class given is biochemical. An excerpt:
The inhibition of factor Xa by the compounds according to the invention and the measurement of the anticoagulant and antithrombotic activity can be determined by conventional in-vitro or in-vivo methods. A suitable method is described, for example, by J. Hauptmann et al. in Thrombosis and Haemostasis 1990, 63, 220-223.
The inhibition of factor Xa can be measured, for example by the method of T. Hara et al. in Thromb. Haemostas. 1994, 71, 314-319.

The target in another data set is T1, TF/FVIIa (Homo sapiens, UniProt P08709).
T1 construct: Coagulation factor VIIa initiates the extrinsic part of the coagulation cascade
T1 sequence (P08709 213-466 limits assumed): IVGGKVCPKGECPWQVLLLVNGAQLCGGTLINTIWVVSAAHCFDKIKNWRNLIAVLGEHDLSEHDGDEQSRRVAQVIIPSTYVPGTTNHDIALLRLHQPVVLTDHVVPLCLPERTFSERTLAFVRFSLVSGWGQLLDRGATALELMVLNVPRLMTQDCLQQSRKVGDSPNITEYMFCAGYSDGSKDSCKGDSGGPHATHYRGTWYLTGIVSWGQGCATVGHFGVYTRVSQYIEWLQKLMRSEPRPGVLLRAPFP
T1 sequence (P08709 61-212 limits assumed): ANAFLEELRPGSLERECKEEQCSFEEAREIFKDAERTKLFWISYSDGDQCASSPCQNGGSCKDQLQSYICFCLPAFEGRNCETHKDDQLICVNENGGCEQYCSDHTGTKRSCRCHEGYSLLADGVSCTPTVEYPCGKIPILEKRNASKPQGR
T1 sequence (P13726 33-295 partner): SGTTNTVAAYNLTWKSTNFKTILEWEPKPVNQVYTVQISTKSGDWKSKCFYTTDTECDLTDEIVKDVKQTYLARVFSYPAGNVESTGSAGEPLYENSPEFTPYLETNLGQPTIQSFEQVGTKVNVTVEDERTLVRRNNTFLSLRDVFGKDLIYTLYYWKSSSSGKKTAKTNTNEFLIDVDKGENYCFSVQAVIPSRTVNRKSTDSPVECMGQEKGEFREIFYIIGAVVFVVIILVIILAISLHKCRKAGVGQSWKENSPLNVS
Nature of the data set: TF/factor VIIa inhibition (TF/FVIIa-IC50, pharmacological data). It is filed as biochemical. An excerpt:
The inhibition of factor VIIa by the compounds according to the invention and the measurement of the anticoagulant and antithrombotic activity can be determined by conventional in-vitro or in-vivo methods. A conventional method for the measurement of the inhibition of factor VIIa is described, for example, by H. F. Ronning et al. in Thrombosis Research 1996, 84, 73-81.

Chain of FXa (P00742 235-488 limits assumed): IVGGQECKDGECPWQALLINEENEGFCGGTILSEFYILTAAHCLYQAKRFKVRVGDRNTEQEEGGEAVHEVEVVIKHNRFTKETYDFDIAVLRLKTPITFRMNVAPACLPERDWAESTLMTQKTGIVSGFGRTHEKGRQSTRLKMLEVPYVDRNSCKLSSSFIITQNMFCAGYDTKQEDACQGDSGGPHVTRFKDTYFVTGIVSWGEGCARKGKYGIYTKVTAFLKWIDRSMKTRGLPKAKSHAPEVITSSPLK
Chain of FXa (P00742 41-179 limits assumed): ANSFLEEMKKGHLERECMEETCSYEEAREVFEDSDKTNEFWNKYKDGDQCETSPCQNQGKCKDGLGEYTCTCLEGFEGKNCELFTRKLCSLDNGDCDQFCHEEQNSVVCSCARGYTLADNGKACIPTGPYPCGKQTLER

As for `C#Cc1ccc(NC(=O)N[C@H](CCC)C(=O)Nc2ccc(N3CCOCC3=O)cc2)cc1` [AA, (R)-2-[3-(4-ethynylphenyl)ureido]-N-[4-(3-oxomorpholin-4-yl)-phenyl]valeramide], the melting point (in general, the temperature of the solid-liquid transition) is 182 °C. In addition, at FXa, the IC50 – broadly, the concentration that inhibits the measured activity by half – was found to be 25 nM. The same compound came in with an IC50 on TF/FVIIa of 88 nM.
Take `C#Cc1ccc(NC(=O)N[C@H](CC(C)C)C(=O)Nc2ccc(N3CCOCC3=O)cc2)cc1` [AB, (R)-2-[3-(4-ethynylphenyl)ureido]-N-[4-(3-oxomorpholin-4-yl)phenyl]4-methylvaleramide]: the IC50 against FXa was 36 nM; on TF/FVIIa, 41 nM.
On to `C#Cc1ccc(NC(=O)N[C@H](CC(C)C)C(=O)Nc2ccc(N3CCNC3=N)cc2)cc1` [AC, (R)-2-[3-(4-ethynylphenyl)ureido]-N-[4-(2-iminoimidazolidin-1-yl)phenyl]4-methylvaleramide], for which the results for the IC50 against FXa and at TF/FVIIa were 46 nM and 240 nM, respectively.
On to `C#Cc1ccc(NC(=O)N[C@H](CO)C(=O)Nc2ccc(N3CCOCC3=O)cc2)cc1` [Compound 5], for which the results for the IC50 against FXa and at TF/FVIIa were 42 nM and 33 nM, respectively.
Take `C#Cc1ccc(NC(=O)N[C@H](COC)C(=O)Nc2ccc(N3CCOCC3=O)cc2)cc1` [Compound 6]: the IC50 on FXa was 22 nM; against TF/FVIIa, 37 nM.
